Consider 1 cell line from the supplement of paper PMC10307832.

Holding throughout (assay): relative viability (nuclei count vs DMSO), 5 days (fraction); higher = more cells survive
Compound in test [1]: COc1cc2nccc(Oc3ccc(NC(=O)C4(C(=O)Nc5ccc(F)cc5)CC4)cc3)c2cc1OC [Cabozantinib] + Nc1ncn([C@H]2C[C@H](O)[C@@H](CO)O2)c(=O)n1 [Decitabine] (partner 2 µM)
The method, boiled down: (§1)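 Relative viability equals treated-well nuclei counts divided by vehicle-well nuclei counts. Counts came from 4× images of lung cancer cell lines grown in 1536-well plates for 5 days after pin-tool dosing on the day after seeding. Dosing used one drug alone or a fixed anchor-drug dose plus five library-drug doses (not always all listed) in √10 steps, and values are medians of duplicate plates.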

Compound in the test “Zosuquidar + Pictilisib”: O[C@@H](COc1cccc2ncccc12)CN1CCN([C@@H]2c3ccccc3[C@@H]3[C@H](c4ccccc42)C3(F)F)CC1 [Zosuquidar] + CS(=O)(=O)N1CCN(Cc2cc3nc(-c4cccc5[nH]ncc45)nc(N4CCOCC4)c3s2)CC1 [Pictilisib] (partner 1 µM)
The gist of the method:
as §1

Compound in the test “Kobe2602 + Pictilisib”: C1=CC(=CC=C1NC(=S)NNC2=C(C=C(C=C2[N+](=O)[O-])C(F)(F)F)[N+](=O)[O-])F [Kobe2602] + CS(=O)(=O)N1CCN(Cc2cc3nc(-c4cccc5[nH]ncc45)nc(N4CCOCC4)c3s2)CC1 [Pictilisib] (partner 1 µM)
The method, boiled down: as §1

Compound in test [2]: COc1cc2nccc(Oc3ccc(NC(=O)C4(C(=O)Nc5ccc(F)cc5)CC4)cc3)c2cc1OC [Cabozantinib] + CC(=O)c1c(C)c2cnc(Nc3ccc(N4CCNCC4)cn3)nc2n(C2CCCC2)c1=O [Palbociclib] (partner 0.5 µM)
The gist of the method: as §1

Regarding UMC-11, the relative viability in test [1] (first compound 0.02 µM) turned out to be 0.654; in test [1] (first compound 0.06325 µM), 0.597; in test [1] (first compound 0.2 µM), 0.577; in test [1] (first compound 0.6325 µM), 0.615; in test [1] (first compound 2 µM), 0.554; with Zosuquidar + Pictilisib (first compound 0.01 µM), 0.663. Besides, the relative viability was determined as 0.92 with Zosuquidar + Pictilisib (first compound 0.03162 µM); 0.707 in the test with Zosuquidar + Pictilisib (first compound 0.1 µM); 0.881 with Zosuquidar + Pictilisib (first compound 0.3162 µM); 0.777 with Zosuquidar + Pictilisib (first compound 1 µM); 0.865 in the test with Kobe2602 + Pictilisib (first compound 0.2 µM); 0.863 with Kobe2602 + Pictilisib (first compound 0.6325 µM). Also, the relative viability with Kobe2602 + Pictilisib (first compound 2 µM) was 0.847; with Kobe2602 + Pictilisib (first compound 6.325 µM) it was 0.778; with Kobe2602 + Pictilisib (first compound 20 µM), 0.868; in test [2] (first compound 0.02 µM), 0.352; in test [2] (first compound 0.06325 µM) it was 0.324; in test [2] (first compound 0.2 µM), 0.336. In addition, the relative viability amounted to 0.312 in test [2] (first compound 0.6325 µM) and 0.334 in test [2] (first compound 2 µM).
